From ChEMBL document CHEMBL1909046, “DrugMatrix in vitro pharmacology data”

Columns and labels:
Histamine H2 receptor = Histamine H2 receptor (Homo sapiens, UniProt P25021); assay type: cell membranes, CHO-K1, Membrane; details: cho-k1; also: in other assays of this panel Not Active means under 50% inhibition at 10 µM
[1] = molecular target: T1, Muscarinic acetylcholine receptor M2 (Homo sapiens, UniProt P08172); assay type: cell membranes, CHO-K1, Membrane; details: cho-k1; also: in other assays of this panel Not Active means under 50% inhibition at 10 µM
T1 sequence (P08172 whole entry): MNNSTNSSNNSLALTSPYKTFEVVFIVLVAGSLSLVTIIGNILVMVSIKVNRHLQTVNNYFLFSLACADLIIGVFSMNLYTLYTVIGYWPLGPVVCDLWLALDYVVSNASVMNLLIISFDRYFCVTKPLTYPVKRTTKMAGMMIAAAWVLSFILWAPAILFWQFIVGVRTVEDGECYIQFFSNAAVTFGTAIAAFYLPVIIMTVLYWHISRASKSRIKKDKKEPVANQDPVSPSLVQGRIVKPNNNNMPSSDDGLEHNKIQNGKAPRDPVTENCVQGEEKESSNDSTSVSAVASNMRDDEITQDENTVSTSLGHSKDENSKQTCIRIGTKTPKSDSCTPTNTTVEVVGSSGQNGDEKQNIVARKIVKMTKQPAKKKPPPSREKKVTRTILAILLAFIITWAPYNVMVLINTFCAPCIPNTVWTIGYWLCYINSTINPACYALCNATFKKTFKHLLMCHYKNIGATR

Adenosine receptor A3 = molecular target: T2, Adenosine receptor A3 (Homo sapiens, UniProt P0DMS8); assay type: cell membranes, CHO-K1, Membrane; details: cho-k1;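 also: radioligand binding assay with AB-MECA serving as the labeled ligand; in other assays of this panel Not Active means under 50% inhibition at 10 µM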
T2 sequence (P0DMS8 whole entry): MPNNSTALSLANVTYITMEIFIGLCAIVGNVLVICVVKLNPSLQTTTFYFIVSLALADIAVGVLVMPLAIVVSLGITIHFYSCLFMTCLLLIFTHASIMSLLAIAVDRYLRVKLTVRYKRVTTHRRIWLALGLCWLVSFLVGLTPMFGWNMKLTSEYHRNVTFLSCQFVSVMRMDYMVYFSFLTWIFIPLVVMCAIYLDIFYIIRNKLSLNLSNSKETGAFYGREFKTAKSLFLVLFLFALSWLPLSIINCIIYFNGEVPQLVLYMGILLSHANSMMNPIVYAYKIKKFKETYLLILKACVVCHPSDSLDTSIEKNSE

[2] = DRUGMATRIX: Tumor Necrosis Factor (TNF), Non-Selective radioligand binding (ligand: [125I] TNF-alpha); assay type: cell membranes, Membrane; details: u-937; Not Active = under 50% inhibition at 10 µM
[3] = molecular target: T3, Receptor-type tyrosine-protein phosphatase C (Homo sapiens, UniProt P08575); set-up: species or system Escherichia coli;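 also: inhibition of CD45 enzyme activity measured using DiFMUP as substrate; in other assays of this panel Not Active means under 50% inhibition at 10 µM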
T3 sequence (P08575 whole entry): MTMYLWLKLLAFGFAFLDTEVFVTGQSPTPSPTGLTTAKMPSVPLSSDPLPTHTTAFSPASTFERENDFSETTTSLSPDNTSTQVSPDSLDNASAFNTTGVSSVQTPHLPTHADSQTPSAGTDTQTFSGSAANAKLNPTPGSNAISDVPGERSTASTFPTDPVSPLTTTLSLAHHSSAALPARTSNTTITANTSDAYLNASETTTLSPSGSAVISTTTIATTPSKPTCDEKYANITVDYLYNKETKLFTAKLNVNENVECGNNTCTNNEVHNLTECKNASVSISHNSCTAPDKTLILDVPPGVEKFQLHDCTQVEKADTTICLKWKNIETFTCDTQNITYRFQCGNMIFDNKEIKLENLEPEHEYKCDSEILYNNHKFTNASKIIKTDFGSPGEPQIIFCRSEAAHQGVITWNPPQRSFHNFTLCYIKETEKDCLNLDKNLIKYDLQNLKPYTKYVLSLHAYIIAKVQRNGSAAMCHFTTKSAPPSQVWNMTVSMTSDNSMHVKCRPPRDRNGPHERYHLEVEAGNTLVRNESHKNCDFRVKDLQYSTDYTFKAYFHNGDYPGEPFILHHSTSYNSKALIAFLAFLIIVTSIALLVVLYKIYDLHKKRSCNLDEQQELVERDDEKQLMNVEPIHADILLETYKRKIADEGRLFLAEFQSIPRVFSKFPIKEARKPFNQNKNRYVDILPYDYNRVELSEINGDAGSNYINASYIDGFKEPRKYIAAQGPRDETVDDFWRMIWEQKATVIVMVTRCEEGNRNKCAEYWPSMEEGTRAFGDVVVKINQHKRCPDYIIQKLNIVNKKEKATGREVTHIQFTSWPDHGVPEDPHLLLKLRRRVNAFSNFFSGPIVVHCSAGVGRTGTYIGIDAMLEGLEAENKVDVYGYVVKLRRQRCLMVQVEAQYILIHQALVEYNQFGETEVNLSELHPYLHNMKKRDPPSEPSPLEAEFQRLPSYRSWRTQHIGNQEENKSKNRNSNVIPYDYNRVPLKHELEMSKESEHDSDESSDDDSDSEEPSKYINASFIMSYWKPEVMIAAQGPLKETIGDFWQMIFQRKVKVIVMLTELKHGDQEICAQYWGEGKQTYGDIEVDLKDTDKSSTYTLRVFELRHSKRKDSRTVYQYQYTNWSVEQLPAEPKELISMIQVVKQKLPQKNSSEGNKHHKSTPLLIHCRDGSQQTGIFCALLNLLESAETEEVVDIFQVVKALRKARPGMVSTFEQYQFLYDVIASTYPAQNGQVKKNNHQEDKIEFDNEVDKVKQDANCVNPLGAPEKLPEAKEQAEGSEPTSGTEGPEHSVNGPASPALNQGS

[4] = molecular target: Epidermal growth factor receptor (Homo sapiens, UniProt P00533); assay: DRUGMATRIX: Protein Tyrosine Kinase, EGF Receptor enzyme inhibition (substrate: Poly(Glu:Tyr)); assay type: cell-based, Insect cells; details: insect cells; Not Active = under 50% inhibition at 10 µM
Sequence of Epidermal growth factor receptor (P00533 whole entry): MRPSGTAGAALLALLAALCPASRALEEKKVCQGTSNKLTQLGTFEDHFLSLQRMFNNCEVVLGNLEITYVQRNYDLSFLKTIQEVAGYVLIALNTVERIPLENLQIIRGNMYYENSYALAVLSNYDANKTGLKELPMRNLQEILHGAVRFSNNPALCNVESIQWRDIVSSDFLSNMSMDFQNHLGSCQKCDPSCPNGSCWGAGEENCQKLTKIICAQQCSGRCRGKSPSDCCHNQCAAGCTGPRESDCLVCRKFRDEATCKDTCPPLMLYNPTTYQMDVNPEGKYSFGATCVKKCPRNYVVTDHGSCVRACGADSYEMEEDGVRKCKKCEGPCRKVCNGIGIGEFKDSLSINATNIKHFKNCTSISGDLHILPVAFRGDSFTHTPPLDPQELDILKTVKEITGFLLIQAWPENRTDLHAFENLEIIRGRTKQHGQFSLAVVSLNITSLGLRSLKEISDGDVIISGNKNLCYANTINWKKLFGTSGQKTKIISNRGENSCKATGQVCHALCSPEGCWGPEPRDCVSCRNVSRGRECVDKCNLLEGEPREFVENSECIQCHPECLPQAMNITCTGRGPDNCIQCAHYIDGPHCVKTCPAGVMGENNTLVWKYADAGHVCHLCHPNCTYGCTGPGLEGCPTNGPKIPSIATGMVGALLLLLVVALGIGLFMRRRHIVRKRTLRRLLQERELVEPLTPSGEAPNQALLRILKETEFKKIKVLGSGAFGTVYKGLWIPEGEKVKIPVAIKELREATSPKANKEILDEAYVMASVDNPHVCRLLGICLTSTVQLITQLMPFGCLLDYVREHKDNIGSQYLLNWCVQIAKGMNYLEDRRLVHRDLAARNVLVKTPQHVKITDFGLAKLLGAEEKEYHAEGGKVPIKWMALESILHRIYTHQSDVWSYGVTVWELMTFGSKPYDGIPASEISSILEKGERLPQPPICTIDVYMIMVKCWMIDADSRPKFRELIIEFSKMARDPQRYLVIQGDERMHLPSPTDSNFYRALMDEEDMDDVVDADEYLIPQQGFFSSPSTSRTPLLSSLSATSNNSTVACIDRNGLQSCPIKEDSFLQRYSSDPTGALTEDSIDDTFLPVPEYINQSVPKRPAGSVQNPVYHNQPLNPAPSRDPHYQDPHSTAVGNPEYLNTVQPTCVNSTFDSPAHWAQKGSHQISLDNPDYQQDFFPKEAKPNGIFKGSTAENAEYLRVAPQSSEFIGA

Sequence of Histamine H2 receptor (P25021 whole entry): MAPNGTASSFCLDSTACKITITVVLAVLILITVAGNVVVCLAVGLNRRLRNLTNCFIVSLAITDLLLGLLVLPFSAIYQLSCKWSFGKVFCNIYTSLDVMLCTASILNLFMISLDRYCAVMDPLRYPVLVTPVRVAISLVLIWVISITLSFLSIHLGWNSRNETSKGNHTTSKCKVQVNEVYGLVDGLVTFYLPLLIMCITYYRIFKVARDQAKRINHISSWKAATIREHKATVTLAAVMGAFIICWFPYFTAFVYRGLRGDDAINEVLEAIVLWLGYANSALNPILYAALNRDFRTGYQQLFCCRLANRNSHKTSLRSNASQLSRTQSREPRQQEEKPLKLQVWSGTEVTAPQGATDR

CO[C@@]12[C@H](COC(N)=O)C3=C(C(=O)C(C)=C(N)C3=O)N1C[C@@H]1N[C@@H]12 [MITOMYCIN]
Not Active: IC50 (Histamine H2 receptor) | IC50 [1] | IC50 (Adenosine receptor A3) | IC50 [2] | Ki [2] | IC50 [3] | IC50 [4]
